Experimental data taken from patent US20100034901A1, “ANIMAL FEED COMPOSITIONS” (priority 2006, published 2010).
“Also recorded” adds a separate entry of the source.

What was measured:
Duroc and Yorkshire pigs = test: Boron supplementation and OC-associated lameness in swine (Example 1); format: in vivo, pig
Procedure: The basal diet consisted of commercial corn-soy diet containing 10 ppm boron.
Test diet group B was fed a basal diet plus 25 mg/kg boron as sodium borate decahydrate (borax). Test diet group A was fed a basal diet plus 25 mg/kg boron as sodium borate decahydrate (borax) and 250 mg/kg ascorbic acid.
Pigs were weighed at the beginning of the study, 4 weeks later and every 3 weeks until the end of the study. Animals were scored for soundness on a 5-point scale at each weighing. (Five-point scale: 1=no soundness defects; 2=minor soundness issues but still sound enough for retention as breeding animal; 3=not sound enough for retention for breeding but still marketable; 4=unsound, likely to be rejected at slaughter; 5=severely lame, requiring euthanasia for humane reasons.) Grading was done by the caretaker and the investigator at all weighing times. An experienced independent treatment-blind rater also evaluated the soundness of each animal and the ratings he provided were compared with the ratings of the caretaker and investigator by use of Cohen's Kappa test.
The animals were housed in a modern curtain sided barn with deep straw bedding, with ad libitum access to feed and water. Waterers and feeders were on a concrete pad but the remainder of the flooring was deep straw over a ground limestone and sand base. Floor space allowances exceeded the recommendations of the Guide for the Care and Use of Agricultural Animals in Agricultural Research and Teaching, First Revised Edition, 1999. Federation of Animal Science Societies. Savoy, Ill.
The basal diet (no boron supplemented) was analysed and found to contain boron at the rate of 10 ppm which is typical for a corn-soybean meal based diet.
At the end of the study the pigs were transported to a laboratory where they were euthanized and necropsied. Six pigs in each of group B and group A were put on the control diet for 7 days at the end of the study.
At necropsy, samples of liver, heart, kidney, fat, skeletal muscle, proximal tibia, blood, and the rostral snout were retained and frozen at −40° C. prior to chemical analysis. All joints of the axial skeleton were evaluated for the presence of gross lesions of osteochondrosis and graded on a 5 point scale. (5-point scale: 1=no gross abnormalities; 2=minor imperfections in articular conformation or articular reddening present but no cartilage erosions; 3=cartilage intact but surface irregularities of the cartilage are present; 4=fissuring or erosion of articular cartilage is obvious; 5=full thickness cartilage lesions or cartilage flaps, osteochondritis dissecans obviously present).
The proximal femur (femoral head) and articular surfaces and growth plates associated with the stifle, hock, shoulder, elbow and carpus were sectioned with a band saw and approx. 0.5 to 1.0 cm sections fixed in formalin. […]
Mean joint lesion scores, growth rate and soundness scores by treatment and by factors boron and ascorbate were compared using an analysis of variance and t-test as appropriate. Soundness scores were dichotomised into binary categorical variables for lameness (soundness score>2) and for absence of defects (soundness<2), and the binary variables analysed by chi-square and logistic regression.
Tissue specimens stained with H&E were examined microscopically for the presence of lesions of osteochondrosis. […] Each tissue section was scored by a treatment-blind board-certified pathologist. […]

pig cartilage = test: Glycosaminoglycan study: sGAG in articular cartilage plugs of hock and elbow joints; format: in vivo; details: pigs fed 50 ppm boron
Procedure: Hock joints and elbow joints were obtained at necropsy from pigs in two feeding groups: one group having been fed a commercial ration supplemented with 50 mg B/kg feed and the other being fed only the standard commercial pig ration.
Cartilage plugs were harvested from the articular surfaces of 40 hock and elbow joints using a #5 (10.5 mm) cork borer. The samples were papain digested and analyzed for concentration of sulfated glycosaminoglycan (sGAG) using a spectrophotometric microplate analysis procedure adapted from Farndale, et al (1986), using a chondrotin sulfate standard. This method measures total sulfated glycosaminoglycan, most of which is chondrotin sulfate and keratan sulfate components of aggrecan. Aggrecan is the large aggregating proteoglycan of cartilage responsible for creating and maintaining the osmotic pressure of cartilage. Quanititation of sGAG concentration thus provides a measure of the weight-bearing and anti-friction properties of cartilage and is a measure of cartilage quality and durability.

sows and their litters = test: Sow and litter trial in a commercial swine operation during a PRRSV outbreak; format: in vivo; details: sows given 1 mg boron per pound BW per day
Procedure: To test the effect of boron on sows and their litters, a trial was established in a large commercial swine operation during an outbreak of porcine viral reproductive and respiratory disease (PRRSV). Boron was administered orally to a group of 51 sows individually housed in crates at the rate of 1 mg boron per pound BW per day beginning 1 week prior to farrowing and continuing until the piglets were weaned at 14 days of age. […] Boron treatment was supplied as a single daily dosing and was discontinued at weaning. All sows were fed a standard commercial sow diet.

crossbred pigs = test: 28-day feeding trial: phosphorus digestibility and excretion, feed conversion; format: in vivo, pig; details: 50 ppm Added B; 28 days; N 12 pens
Procedure: Pigs were randomly allocated to 24 pens of 6 pigs per pen in a thermoneutral controlled environment barn with steel grid flooring. Each pen was equipped with a single-hole feeder. Water was available free-choice from a nipple drinker. […] Feces were collected on the last 3 days of the study from each pen and a pooled aliquot was dried and submitted for chemical analysis. Yttrium oxide was added to the diet at 0.05% and served as a marker for phosphorus digestibility. Pig growth and feed consumption was measured at the end of the study with the pen as the experimental unit. Data was analyzed for effects of boron and calcium by univariate and multivariate analysis of variance and t-tests.

turkeys = test: Turkey Study 3: growth, lameness scoring, femur breaking force, cartilage indenter test; format: in vivo; details: for leg weakness scores (mean): 5 point scale, control 3.0; for growth response (bird weight) / growth rates: groups with boron versus groups without boron
Excerpt: 250 turkeys were selected at random at week 11 and divided into 5 treatment groups: 1) control, 2) ascorbate only “(VC”), 3) boron only (“B”), 4), boron and ascorbate (“B+C”), and 5) ½ rate boron and full rate ascorbate (“LoB+C”). Full rates of both boron and ascorbate were as described for study 1. At 17 weeks, all birds were weighed, scored for lameness/mobility/gait abnormality using the five point scale used in study 1, and sacrificed. The femur was dissected from each leg of each bird and subjected to an ultimate breaking force analysis. Cartilage at the femoral distal condyle was subjected to an indenter test.
For the lameness/mobility/gait abnormality scoring, three graders were used. Two of the graders were “blind” graders unaware of each turkey's grouping. The third grader was a “biased” grader aware of each turkey's grouping. Partial grading on the 5 point scale described above was allowed. FIG. 11 presents the cross-tabulation of the graders' results.

[1] = test system: pigs of about 100 kg body weight; test: 3-NPB study in pigs with or without supplemental boron
Procedure: The pigs were evaluated for lameness daily and euthanatized on day 13 and the joints and other organs were examined.

[2] = test system: sows, piglets and pigs on farms; format: in vivo; details: sows on 1 mg/kg body weight boron as boric acid; usual mortality for this farm about 5 to 7%
Procedure: Boron was added to the diet of sows at 1 mg/kg body weight as boric acid. […] Among a group of 95 piglets the birth to weaning mortality was 2 piglets. The usual mortality for this farm was about 5 to 7%. These piglets remained on boron 50 ppm plus ascorbate 125 ppm. One pig was euthanized and examined at a weight of about 85 pounds. […] All bones of the appendicular skeleton were sectioned on the band saw.
An Iowa farm treated a group of about 100 pigs with 50 ppm boron as boric acid. None of these pigs developed any signs of lameness or unsoundness. The farmer reported that these pigs are the most sound he has raised. The estimated previous lameness/unsoundness rate was about 25 to 30%, and zero in the test group. […] The absence of lameness and hock swelling was observed. Two pigs with hock swelling were euthanised from among the younger and older pigs not treated with boric acid. […] An older pig of about 250 pounds body weight with severe lameness in the right hock was euthanised.

[3] = boron supplementation 50 ppm, 3-NPB none

Row | SMILES | TBlue staining intensity (semi-quantitative measure of sGAG content of cartilage) (Duroc and Yorkshire pigs; boron supplemented group vs unsupplemented pigs) | joint condition vs basal diet with no supplemental boron (FIG. 1) (Duroc and Yorkshire pigs; growing swine supplemented with boron) | Growth plate lesions associated with widening, found in % of tissues (Duroc and Yorkshire pigs; pigs receiving 25 ppm boron, microscopic sections of articular cartilage and growth plate) [%] | Articular cartilage lesions (necrosis, hemorrhage, infarction, or streaks), found in % of tissues (Duroc and Yorkshire pigs; pigs receiving 25 ppm supplemental B, microscopic sections) [%] | occurrence of OC in pigs (Duroc and Yorkshire pigs; supplemental boron at 25 ppm to 50 ppm, FIGS. 1, 3 and 4) | sGAG concentration (dry matter basis) in the cartilage (pig cartilage) [ng/g] | litter size at birth (sows and their litters) | piglet birth weight (sows and their litters) | Feed Conversion Ratio (feed/gain) (crossbred pigs) | leg weakness scores (mean) (turkeys) | improvement of bone strength as compared with the control (turkeys; boron alone, 3-point bending test of the femur) [%] | effect on femur break force (main effects analysis, FIG. 26) (turkeys; week 11 to 17) | growth response (bird weight) / growth rates (turkeys; week 11 to 17) | growth response (bird weight) / growth rates (turkeys; week 11 to 17, listed as B) | Clinical Lameness Score: Normal (count of pigs) [1, 3] | Clinical Lameness Score: Visible Lameness (count of pigs) [1, 3] | prevalence and severity of osteochondrosis lesions (shoulder, stifle, hock and elbow joints) ([1]; supplemental boron and no 3-NPB) | bone strength as measured by 3-point bending test (turkeys; administered in drinking water) | cartilage strength by indenter test at the femoral distal condyle (FIG. 27) (turkeys; week 11 to 17) | birth to weaning mortality among a group of 95 piglets [2] [piglets]
1 | [B] [Boron] | consistently higher | healthier joints | 19 | 4 | significant reduction | 11050 | no effects | no effects | 2.32 | 2.3 | 7.8 | large effect | improved | significant | 5 | 0 | lowest prevalence of lesions and the lowest severity |  |  | 
2 | O=C1O[C@H]([C@@H](O)CO)C(O)=C1O [ascorbate, ascorbic acid, reference compound] |  |  |  |  |  |  |  |  |  | did not significantly improve |  | lesser effect |  |  |  |  |  | slightly improved bone strength | statistically significant effect; also recorded: improved cartilage strength | 
3 | OB(O)O [boric acid] |  |  |  |  |  |  |  |  |  |  |  |  |  |  |  |  |  |  |  | 2
